Experimental findings from patent US20240217978A1 (CHONG KUN DANG PHARMACEUTICAL CORP., priority 2021, published 2024) are described below.

What is called IC50 is the concentration that inhibits the measured activity by half. Higher therefore signals a need for much substance.

human adenosine A2a receptor, sequence (P29274 whole entry): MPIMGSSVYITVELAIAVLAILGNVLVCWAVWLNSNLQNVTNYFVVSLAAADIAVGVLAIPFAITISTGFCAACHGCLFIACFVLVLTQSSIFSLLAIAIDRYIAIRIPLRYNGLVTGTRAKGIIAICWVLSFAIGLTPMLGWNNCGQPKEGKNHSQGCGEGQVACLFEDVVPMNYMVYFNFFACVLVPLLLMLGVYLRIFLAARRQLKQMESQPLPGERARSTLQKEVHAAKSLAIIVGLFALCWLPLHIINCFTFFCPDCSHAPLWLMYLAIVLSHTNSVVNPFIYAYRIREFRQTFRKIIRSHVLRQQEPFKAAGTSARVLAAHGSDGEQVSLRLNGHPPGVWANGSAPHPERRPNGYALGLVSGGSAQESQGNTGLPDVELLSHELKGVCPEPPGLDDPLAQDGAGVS

This experiment has as its target human adenosine A2a receptor (Homo sapiens (Human), UniProt P29274). Kind of experiment: A2a receptor binding affinity, [3H]-NECA radioligand binding test. To be noted: [3H]-NECA 37 nM; membrane from HEK-293 cells transfected with human adenosine A2a receptor. The protocol:
The binding affinity of the compounds according to Examples of the present invention to the human adenosine A2a receptor was evaluated by entrusting SB drug discovery in the UK.
A radioligand binding test was conducted by using [3H]-NECA (5′-N-[adenine-2,8-3H]-ethylcarboxamidoadenosine) and an adenosine A2a membrane. As the adenosine A2a membrane, a cell membrane prepared from HEK-293 cells transfected with human adenosine A2a receptor was used. The membrane used for the test was prepared by incubating with a radioligand until equilibrium was reached. In order to separate the radioligand-bound membrane, the unbound radioligand was separated by using Packard filtermate Harverster and glass filter plates.
10 μL of test compound dissolved in binding buffer (50 mM Tris, 10 mM MgCl2, 1 mM EDTA pH 7.4) and 20 μL of [3H]-NECA (final concentration of 37 nM) or reference inhibitor was mixed with 20 μL of A2a membrane in an unbound 96-well plate and incubated at room temperature for one hour. Prior to filtration, a 96-well harvest filter plate was coated with 0.33% polyethylenimine for 30 minutes and then washed with assay buffer. The binding reaction was transferred to the filter plate and washed three times with wash buffer. The dish was then dried, scintillant was added, and radioactivity was counted in a scintillation counter (Topcount NXT, Packard).
The binding affinity IC50 (μM) for the human adenosine A2a receptor obtained according to the above experimental method is shown in the table below.
Turning to `CC(C)(F)CN1CCN(C(=O)[C@H](Cc2ccccc2)Nc2nc(N)n3nc(-c4ccco4)nc3n2)CC1` [Example 28, (S)-2-((7-amino-2-(furan-2-yl)-[1,2,4]triazolo[1,5-a][1,3,5]triazin-5-yl)amino)-1-(4-(2-fluoro-2-methylpropyl)piperazin-1-yl)-3-phenylpropan-1-one], the IC50 came out at 8 nM.

In turn, `Nc1nc(N2CCCC[C@H]2C(=O)N2CCN(Cc3ccc(F)cc3F)CC2)nc2nc(-c3ccco3)nn12` [Example 29, (S)-(1-(7-amino-2-(furan-2-yl)-[1,2,4]triazolo[1,5-a][1,3,5]triazin-5-yl)piperidin-2-yl)(4-(2,4-difluorobenzyl)piperazin-1-yl)methanone] came in with an IC50 of 8 nM.

Consider `C[C@H](Nc1nc(N)n2nc(-c3ccco3)nc2n1)C(=O)N1CC2(CCN(Cc3ccc(F)cc3F)CC2)C1` [Example 30, (S)-2-((7-amino-2-(furan-2-yl)-[1,2,4]triazolo[1,5-a][1,3,5]triazin-5-yl)amino)-1-(7-(2,4-difluorobenzyl)-2,7-diazaspiro[3.5]nonan-2-yl)propan-1-one], for which the IC50 is 1 nM.

Regarding `C[C@H](Nc1nc(N)n2nc(-c3ccco3)nc2n1)C(=O)N1CCC2(CC1)CN(Cc1ccc(F)cc1F)C2` [Example 31, (S)-2-((7-amino-2-(furan-2-yl)-[1,2,4]triazolo[1,5-a][1,3,5]triazin-5-yl)amino)-1-(2-(2,4-difluorobenzyl)-2,7-diazaspiro[3.5]nonan-7-yl)propan-1-one], the IC50 was 1 nM.

As to `C[C@H](Nc1nc(N)n2nc(-c3ccco3)nc2n1)C(=O)N1C[C@@H]2C[C@H]1CN2Cc1ccc(F)cc1F` [Example 32, (S)-2-((7-amino-2-(furan-2-yl)-[1,2,4]triazolo[1,5-a][1,3,5]triazin-5-yl)amino)-1-((1S, 4S)-5-(2,4-difluorobenzyl)-2,5-diazabicyclo[2.2.1]heptan-2-yl)propan-1-one], the IC50 amounted to 0.5 nM.

Regarding `Nc1nc(N2C[C@H](O)C[C@H]2C(=O)N2CCN(c3ccc(F)cc3F)CC2)nc2nc(-c3ccco3)nn12` [Example 37], the IC50 was determined as 12 nM.

With `Cc1ccc(-c2nc3nc(N4CCC[C@H]4C(=O)N4CCN(Cc5ccc(F)cc5F)CC4)nc(N)n3n2)o1` [Example 40, (S)-(1-(7-amino-2-(5-methylfuran-2-yl)-[1,2,4]triazolo[1,5-a][1,3,5]triazin-5-yl)pyrrolidin-2-yl)(4-(2,4-difluorobenzyl)piperazin-1-yl)methanone], the IC50 was 4 nM.

In the case of `Nc1nc(N2CCC[C@H]2C(=O)N2CCN(Cc3ccc(F)cc3F)CC2)nc2oc(-c3ccco3)nc12` [Example 41, (S)-(1-(7-amino-2-(furan-2-yl)oxazolo[5,4-d]pyrimidin-5-yl)pyrrolidin-2-yl)(4-(2,4-difluorobenzyl)piperazin-1-yl)methanone], the IC50 was 13 nM.

For the compound `CCC(O)(CC)CN1CCN(C(=O)[C@@H]2CCCN2c2nc(N)n3nc(-c4ccco4)nc3n2)CC1` [Example 42, (S)-(1-(7-amino-2-(furan-2-yl)-[1,2,4]triazolo[1,5-a][1,3,5]triazin-5-yl)pyrrolidin-2-yl)(4-(2-ethyl-2-hydroxybutyl)piperazin-1-yl)methanone], the IC50 was 11 nM.

As for `CCC(F)(CC)CN1CCN(C(=O)[C@@H]2CCCN2c2nc(N)n3nc(-c4ccco4)nc3n2)CC1` [Example 43, (S)-(1-(7-amino-2-(furan-2-yl)-[1,2,4]triazolo[1,5-a][1,3,5]triazin-5-yl)pyrrolidin-2-yl)(4-(2-ethyl-2-fluorobutyl)piperazin-1-yl)methanone], the IC50 was 11 nM.

On to `Nc1nc(N2CCC[C@H]2C(=O)N2C[C@@H]3C[C@H]2CN3Cc2ccc(F)cc2F)nc2nc(-c3ccco3)nn12` [Example 44, ((S)-1-(7-amino-2-(furan-2-yl)-[1,2,4]triazolo[1,5-a][1,3,5]triazin-5-yl)pyrrolidin-2-yl)((1S,4S)-5-(2,4-difluorobenzyl)-2,5-diazabicyclo[2.2.1]heptan-2-yl)methanone], for which the IC50 was 10 nM.

The compound `Nc1nc(N2CCC[C@H]2C(=O)N2CCN(Cc3ccc(F)cc3)CC2)nc2nc(-c3ccco3)nn12` [Example 45, (S)-(1-(7-amino-2-(furan-2-yl)-[1,2,4]triazolo[1,5-a][1,3,5]triazin-5-yl)pyrrolidin-2-yl)(4-(4-fluorobenzyl)piperazin-1-yl)methanone] registered an IC50 of 19 nM.

Compound `Nc1nc(N2CCC[C@H]2C(=O)N2CCN(C(=O)c3ccccc3)CC2)nc2nc(-c3ccco3)nn12` [Example 46] returned an IC50 of 6 nM.

Consider `CCCCN1CCN(C(=O)[C@@H]2CCCN2c2nc(N)n3nc(-c4ccco4)nc3n2)CC1` [Example 47, (S)-(1-(7-amino-2-(furan-2-yl)-[1,2,4]triazolo[1,5-a][1,3,5]triazin-5-yl)pyrrolidin-2-yl)(4-butylpiperazin-1-yl) methanone], for which the half-maximal inhibitory concentration (IC50) is 8 nM.

In the case of `Nc1nc(N2CCC[C@H]2C(=O)N2CCN(CC(F)(F)F)CC2)nc2nc(-c3ccco3)nn12` [Example 48, (S)-(1-(7-amino-2-(furan-2-yl)-[1,2,4]triazolo[1,5-a][1,3,5]triazin-5-yl)pyrrolidin-2-yl)(4-(2,2,2-trifluoroethyl)piperazin-1-yl)methanone], the IC50 is 13 nM.

As for `CC1CN(C(=O)[C@@H]2CCCN2c2nc(N)n3nc(-c4ccco4)nc3n2)CC(C)N1Cc1ccc(F)cc1F` (stereo partly drawn) [Example 49, ((S)-1-(7-amino-2-(furan-2-yl)-[1,2,4]triazolo[1,5-a][1,3,5]triazin-5-yl)pyrrolidin-2-yl)(4-(2,4-difluorobenzyl)-3,5-dimethylpiperazin-1-yl)methanone], the concentration for half-maximal inhibition (IC50) turned out to be 3 nM.

Take `Nc1nc(N2CCC[C@H]2C(=O)N2CC3CCC(C2)N3Cc2ccc(F)cc2F)nc2nc(-c3ccco3)nn12` [Example 50, ((S)-1-(7-amino-2-(furan-2-yl)-[1,2,4]triazolo[1,5-a][1,3,5]triazin-5-yl)pyrrolidin-2-yl)(8-(2,4-difluorobenzyl)-3,8-diazabicyclo[3.2.1]octan-3-yl)methanone]: the IC50 worked out at 9 nM.

`C[C@@H]1CN(Cc2ccc(F)cc2F)CCN1C(=O)[C@@H]1CCCN1c1nc(N)n2nc(-c3ccco3)nc2n1` [Example 51, ((S)-1-(7-amino-2-(furan-2-yl)-[1,2,4]triazolo[1,5-a][1,3,5]triazin-5-yl)pyrrolidin-2-yl)((R)-4-(2,4-difluorobenzyl)-2-methylpiperazin-1-yl)methanone]: the IC50 stood at 13 nM.

The compound `Nc1nc(N2CCC[C@H]2C(=O)N2CCC3(CC2)CN(Cc2ccc(F)cc2F)C3)nc2nc(-c3ccco3)nn12` [Example 52, (S)-(1-(7-amino-2-(furan-2-yl)-[1,2,4]triazolo[1,5-a][1,3,5]triazin-5-yl)pyrrolidin-2-yl)(2-(2,4-difluorobenzyl)-2,7-diazaspiro[3.5]nonan-7-yl)methanone] had a concentration for half-maximal inhibition (IC50) of 16 nM.

The compound `Nc1nc(N2CCC[C@H]2C(=O)N2CCN(CCN3CCOCC3)CC2)nc2nc(-c3ccco3)nn12` [Example 53, 4-(2-(4-((7-amino-2-(furan-2-yl)-[1,2,4]triazolo[1,5-a][1,3,5]triazine-5-yl)-L-prolyl)piperazin-1-yl)ethyl)morpholine] yielded an IC50 of 8 nM.

`Nc1nc(N2CCC[C@H]2C(=O)N2CCN(C3CCCCC3)CC2)nc2nc(-c3ccco3)nn12` [Example 54]: the IC50 stood at 6 nM.

Consider `Nc1nc(N2CCC[C@H]2C(=O)N2CCC(F)(F)CC2)nc2nc(-c3ccco3)nn12` [Example 55, (S)-(1-(7-amino-2-(furan-2-yl)-[1,2,4]triazolo[1,5-a][1,3,5]triazin-5-yl)pyrrolidin-2-yl)(4,4-difluoropiperidin-1-yl)methanone], for which the IC50 is 16 nM.

`Nc1nc(N2CCC[C@H]2C(=O)N2CCN(C3CCC(F)(F)CC3)CC2)nc2nc(-c3ccco3)nn12` [Example 56, (S)-(1-(7-amino-2-(furan-2-yl)-[1,2,4]triazolo[1,5-a][1,3,5]triazin-5-yl)pyrrolidin-2-yl)(4-(4,4-difluorocyclohexyl)piperazin-1-yl)methanone] registered a concentration for half-maximal inhibition (IC50) of 8 nM.

In the case of `CC(C)[C@H](Nc1nc(N)n2nc(-c3ccco3)nc2n1)C(=O)N1CCN(Cc2ccc(F)cc2F)CC1` [Example 57, (S)-2-((7-amino-2-(furan-2-yl)-[1,2,4]triazolo[1,5-a][1,3,5]triazin-5-yl)amino)-1-(4-(2,4-difluorobenzyl)piperazin-1-yl)-3-methylbutan-1-one], the IC50 amounted to 7 nM.

Regarding `CC(C)[C@H](Nc1nc(N)n2nc(-c3ccco3)nc2n1)C(=O)N1CCN(Cc2ccccc2)CC1` [Example 58, (S)-2-((7-amino-2-(furan-2-yl)-[1,2,4]triazolo[1,5-a][1,3,5]triazin-5-yl)amino)-1-(4-benzylpiperazin-1-yl)-3-methylbutan-1-one], the half-maximal inhibitory concentration (IC50) was determined as 15 nM.

Take `CC(C)[C@H](Nc1nc(N)n2nc(-c3ccco3)nc2n1)C(=O)N1CCN(CC(C)(C)F)CC1` [Example 59, (S)-2-((7-amino-2-(furan-2-yl)-[1,2,4]triazolo[1,5-a][1,3,5]triazin-5-yl)amino)-1-(4-(2-fluoro-2-methylpropyl)piperazin-1-yl)-3-methylbutan-1-one]: the IC50 stood at 7 nM.
